Key:
Experiment in all cases: CTG-3D luminescence at 96 h relative to day-0 seeding control (ratio to day 0); higher = more growth / less cytotoxicity
HCI-005.E2 = tested on: HCI-005.E2 (organoid from a breast cancer xenograft with a HER2-positive history)
Experimental: (§1)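 PDxO 3D drug screen (set 2), 8-point dose, 96 h; CTG-3D luminescence normalised to day-0 seeding control (mean of 4 wells each).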

HCI-011.E2 = tested on: HCI-011.E2 (organoid from an ER-positive breast cancer xenograft)
Experimental: as §1

HCI-001 = tested on: HCI-001 (organoid from a triple-negative breast cancer xenograft)
Experimental: as §1

HCI-012 = tested on: HCI-012 (organoid from a breast cancer xenograft)
Experimental: as §1

HCI-002 = tested on: HCI-002 (organoid from a triple-negative breast cancer xenograft)
Experimental: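 PDX-derived breast cancer organoids (PDxO) in 384-well Matrigel plates, 8-point dose (0.000000625-100 uM), 96 h at 37 C; CellTiter-Glo 3D luminescence normalised to the day-0 seeding control (mean of 4 technical replicates over mean of 4 day-0 wells).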

CC/C(=C(\c1ccc(O)cc1)c1ccc(OCCN(C)C)cc1)c1ccccc1 [4-hydroxytamoxifen]
CTG-3D luminescence at 96 h
Details	12.5 pM	0.00025 µM	0.005 µM	0.1 µM	1 µM	10 µM	100 µM	625 fM
HCI-005.E2	1.68	1.99	2.22	2.35	2.26	2.01	0.0139	2.45
HCI-011.E2	1.35	1.71	1.2	1.83	1.35	1.72	0.0138	1.77

CTG-3D luminescence at 96 h
Details	12.5 pM	0.00025 µM	0.005 µM	0.1 µM	1 µM	10 µM	100 µM	625 fM
HCI-001, days in culture: 365	2.24	2.14	2.59	3.06	2.55	1.86	0.0145	1.46
HCI-001, days in culture: 397	1.66	1.84	2.19	2.62	1.93	1.21	0.00832	1.25
HCI-001, days in culture: 401	1.75	1.39	1.52	1.38	1.26	1.52	0.00247	1.47
HCI-011.E2, days in culture: 74	2.1	1.95	2.01	2.04	1.63	1.31	-0.00194	2.23
HCI-012, days in culture: 214	3.56	3.14	1.65	2.13	2.18	0.301	0.00686	1.93
HCI-012, days in culture: 243	2.35	2.75	1.8	2.23	1.49	1.87	0.00753	2.29
HCI-012, days in culture: 256	1.59	1.79	2.4	3.03	2.03	1.01	-0.000283	2.33
HCI-012, days in culture: 284	2.11	2.32	1.6	2.02	1.71	1.47	0.00771	3.35

O=c1[nH]cc(F)c(=O)[nH]1 [5-fluorouracil]
CTG-3D luminescence at 96 h, HCI-002
Details	12.5 pM	0.00025 µM	0.005 µM	0.1 µM	1 µM	10 µM	100 µM	625 fM
days in culture: 62	2.85	2.76	3.08	2.64	2.28	2.07	1.07	3.16
days in culture: 82	2.94	2.81	2.15	2.78	2.66	1.66	1.08	3.04
days in culture: 91	4.34	3.73	3.78	4.16	2.98	3.14	1.6	4.03
days in culture: 191	2.53	2.58	2.45	2.4	2.34	1.91	1.22	2.43
days in culture: 209	2.41	2.39	2.11	2.23	2.05	1.43	1.02	2.45
days in culture: 227	6.3	6.54	6.31	7.6	5.98	3.45	1.93	6.49

Reference: the supplement of paper PMC8882468
